Measured values: ChEMBL document CHEMBL3639137, “3H-imidazo [4, 5-C] pyridine-6-carboxamides as anti-inflammatory agents” (2014)

Target: T1, Prostaglandin E synthase (Homo sapiens, UniProt O14684)
T1 sequence (O14684 whole entry): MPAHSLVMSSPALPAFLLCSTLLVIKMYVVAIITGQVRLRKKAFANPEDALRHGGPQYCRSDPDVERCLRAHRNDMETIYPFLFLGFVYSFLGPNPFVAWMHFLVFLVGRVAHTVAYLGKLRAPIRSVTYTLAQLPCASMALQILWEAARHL
Assay: Enzyme Assay: The aim of this assay is to determine the affinity of a test compound for the mPGES-1 enzyme. 47 ul of recombinant human mPGES-1 (0.5 ug protein/well) containing microsomal suspension in a buffer containing GSH, (2.5 mmol/L L-Glutathione reduced, dissolved in 0.1 mol/L Phosphat Buffer pH 7.4) is dispensed in a 384-well plate and thereafter 1 ul of the test compound(s) is/are added and incubated for 25 minutes at room temperature. The enzyme reaction is started by the addition of 2 ul PGH2 (final conc. 2 uM) dissolved in water-free Diglyme. After 60 seconds the reaction is terminated by addition of a stop solution containing FeCl2 (10 uL 0.074 mol/l FeCl2). The samples are diluted between 1:25 in PBS (Phosphate Buffered Saline). 10 ul of the diluted samples are transferred to 384-well low volume plate.

| Structure (SMILES) | IC50 [nM] |
| --- | --- |
| Cn1c(Nc2c(Cl)ccc(CNC(=O)C(C)(C)C)c2Cl)nc2cc(C(=O)Nc3cccc(C#N)c3)c(OCC(F)F)cc21 | 3 |
| CC(C)(C)C(=O)NCc1ccc(Cl)c(Nc2nc3c(F)c(OCC(F)(F)F)c(C(=O)N[C@H]4CC[C@H](C(F)(F)F)CC4)cc3[nH]2)c1Cl | 2 |
| Cn1c(Nc2c(Cl)ccc(CNC(=O)C(C)(C)C)c2Cl)nc2cc(C(=O)Nc3ccc(Br)cc3)c(F)cc21 | 2 |
| CC(C)(C)C(=O)NCc1ccc(Cl)c(Nc2nc3cc(OC(F)F)c(C(=O)N[C@H]4CC[C@H](C(F)(F)F)CC4)cc3[nH]2)c1Cl | 2 |
